In PubChem BioAssay (NCI):
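Growth conditions: 96-well plates. Treatment: test compound, 48 hours, 5 concentrations. Analysis: linear interpolation between bracketing concentrations; unreached endpoints set to highest concentration. TGI: total growth inhibition.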 Where a SMILES comes first, the peptide text is derived from it. [ ]: non-standard residue; d: D form. The star is where a group is joined. mTyr = N[CH](Cc1cccc(O)c1)C(=O)O; Cbz = O=C(OCc1ccccc1)*; OBn = c1ccc(CO*)cc1

Key:
Assay in all cases: DTP human tumour cell line panel, 48 h
HCT-116 colon = test system: HCT-116 colon
KM12 colon = test system: KM12 colon
MCF7 breast = test system: MCF7 breast
786-0 renal = test system: 786-0 renal
CCRF-CEM leukemia = test system: CCRF-CEM leukemia
HS 578T breast = test system: HS 578T breast
MDA-N = test system: MDA-N
OVCAR-8 ovarian = test system: OVCAR-8 ovarian
OVCAR-5 ovarian = test system: OVCAR-5 ovarian
HCT-15 colon = test system: HCT-15 colon
HL-60(TB) leukemia = test system: HL-60(TB) leukemia

SMILES | TGI (HCT-116 colon) | TGI (KM12 colon) | TGI (MCF7 breast) | TGI (786-0 renal) | TGI (CCRF-CEM leukemia) | TGI (HS 578T breast) | TGI (MDA-N) | TGI (OVCAR-8 ovarian) | TGI (OVCAR-5 ovarian) | TGI (HCT-15 colon) | TGI (HL-60(TB) leukemia)
Brc1ccc(-c2cn3ccncc3n2)cc1 | > 100 µM | > 100 µM | > 100 µM | > 100 µM | > 100 µM | > 100 µM | > 100 µM | > 100 µM | > 100 µM | > 100 µM | –
CC(C)(CC(O)C#N)/[N+]([O-])=[N+](\[O-])C(C)(C)CC(O)C#N (stereo not drawn) | 32.7 µM | > 100 µM | 65.5 µM | 47.5 µM | – | > 100 µM | 59.5 µM | > 100 µM | 97.2 µM | 38.5 µM | –
O=C(O)CNC(=O)c1c2ccccc2nc2ccccc12 | > 100 µM | > 100 µM | > 100 µM | > 100 µM | > 100 µM | – | – | > 100 µM | > 100 µM | > 100 µM | –
O[C@H]1[C@H](O)[C@@H](O)[C@@]2(O)C[C@@H](O)[C@@H]1N2 | > 100 µM | > 100 µM | > 100 µM | > 100 µM | > 100 µM | > 100 µM | > 100 µM | > 100 µM | – | > 100 µM | > 100 µM
CC(C)CN=C(N)N=C(N)N | > 100 µM | > 100 µM | > 100 µM | > 100 µM | – | > 100 µM | > 100 µM | > 100 µM | > 100 µM | > 100 µM | > 100 µM
C/C(=C/CC[C@]1(CO)CC[C@]2(CO)[C@H](CC[C@@H]3[C@@]4(C)CC[C@H](OC5OCC(O)C(O)C5OC5OC(CO)C(O)C(O)C5O)C(C)(C)[C@@H]4CC[C@]32C)[C@H]1O)CO (stereo partly drawn) | > 100 µM | > 100 µM | > 100 µM | > 100 µM | > 100 µM | > 100 µM | > 100 µM | > 100 µM | > 100 µM | – | > 100 µM
COc1ccc2c(c1)CCN1CCc3cc(OC)c(OC)cc3CC21 (stereo not drawn) | > 100 µM | > 100 µM | > 100 µM | > 100 µM | > 100 µM | > 100 µM | – | > 100 µM | > 100 µM | > 100 µM | –
COc1ccc(CSc2ccccc2Cn2cccc2)cc1OC | > 100 µM | > 100 µM | > 100 µM | > 100 µM | > 100 µM | – | > 100 µM | > 100 µM | > 100 µM | > 100 µM | > 100 µM
CCOc1ccc(-n2nnc3c(N)nc(N)nc32)cc1 | > 100 µM | > 100 µM | > 100 µM | > 100 µM | > 100 µM | – | > 100 µM | > 100 µM | > 100 µM | > 100 µM | –
CCOC(=O)c1ccc(C(=O)C(C(C)=O)C(=O)OC(C)(C)C)[nH]1 (stereo not drawn) | > 100 µM | > 100 µM | > 100 µM | > 100 µM | – | > 100 µM | > 100 µM | > 100 µM | > 100 µM | > 100 µM | > 100 µM
O=C1NC(=S)N(c2ccccc2)C1=O | > 100 µM | > 100 µM | – | > 100 µM | > 100 µM | > 100 µM | – | > 100 µM | > 100 µM | > 100 µM | > 100 µM
COC(=O)C(Cc1cccc(O)c1)NC(=O)C(CC(=O)OCc1ccccc1)NC(=O)OCc1ccccc1 (stereo not drawn) (Cbz-Asp(OBn)-[mTyr]-OMe; configuration not given here) | > 100 µM | > 100 µM | > 100 µM | > 100 µM | – | > 100 µM | > 100 µM | > 100 µM | > 100 µM | > 100 µM | > 100 µM
COC(=O)c1cnn2c1n[n+]([O-])c1ccccc12 | > 100 µM | > 100 µM | > 100 µM | > 100 µM | > 100 µM | > 100 µM | > 100 µM | > 100 µM | > 100 µM | – | > 100 µM
Cc1n[nH]c(=O)n1/N=C/c1ccc([N+](=O)[O-])o1 | 30.2 µM | 29.3 µM | > 100 µM | 36.3 µM | > 100 µM | – | – | 34.6 µM | 53.1 µM | 26.2 µM | –
COc1cccc(NC(=O)C(C#N)=C(SC)SC)c1 | > 100 µM | > 100 µM | > 100 µM | > 100 µM | > 100 µM | > 100 µM | > 100 µM | > 100 µM | > 100 µM | > 100 µM | –
O=C(CSC1=NCCN1)Nc1ccccc1 | 59.6 µM | > 100 µM | – | 50.1 µM | > 100 µM | 65.9 µM | 59 µM | > 100 µM | > 100 µM | > 100 µM | –
Cc1ccc(N=Nc2c(O)c(C(=O)Nc3ccccc3)cc3ccccc23)c([N+](=O)[O-])c1 | > 100 µM | > 100 µM | – | > 100 µM | > 100 µM | > 100 µM | > 100 µM | > 100 µM | > 100 µM | > 100 µM | –
COc1ccc2oc(=N)c(C(=O)Nc3ccccn3)cc2c1 | > 100 µM | > 100 µM | > 100 µM | > 100 µM | > 100 µM | > 100 µM | – | > 100 µM | > 100 µM | > 100 µM | > 100 µM
CN(CCCNC(=O)c1nn(-c2ccc(Cl)cc2Cl)c2c1Cc1ccccc1-2)CCCNC(=O)c1nn(-c2ccc(Cl)cc2Cl)c2c1Cc1ccccc1-2 | 3.15 µM | 4.01 µM | – | 3.21 µM | 2.97 µM | – | 3.17 µM | 3.46 µM | 2.98 µM | 3.38 µM | 3.14 µM
COc1ccc(-n2cnc3c(NC(CCSC)C(=O)O)ncnc32)cc1 (stereo not drawn) | > 100 µM | > 100 µM | > 100 µM | > 100 µM | > 100 µM | > 100 µM | > 100 µM | > 100 µM | > 100 µM | > 100 µM | –
O=C1C[C@@H](c2ccccc2)O[C@@H](c2ccccc2)C1 | > 100 µM | > 100 µM | > 100 µM | > 100 µM | > 100 µM | > 100 µM | > 100 µM | > 100 µM | > 100 µM | > 100 µM | –
CC(C)(C)OC(=O)NCCC1CN(C(=O)c2ccccc2)c2ccccc21 (stereo not drawn) | 43 µM | > 100 µM | 85.5 µM | > 100 µM | – | > 100 µM | 48.4 µM | 67.8 µM | > 100 µM | > 100 µM | –
